Experimental data taken from patent US10407409B2, “6-(5-hydroxy-1H-pyrazol-1-yl)nicotinamide inhibitors of PHD” (Takeda Pharmaceutical Company Limited, priority 2013, dated 2019).

What was measured:
Sprague Dawley rats = experiment: In vivo cardioprotection assay, Langendorff global ischemia/reperfusion, rats; conditions: oral, 5 mg/kg, 30 min global ischemia, 90 min reperfusion
Procedure: (§1) Example C In Vivo Cardioprotection Assay
(§2) PHD inhibitor or vehicle was administered orally to 8-week old male C57 mice or Sprague Dawley rats. Four hours after dosing, hearts were removed quickly and perfused in a retrograde manner with modified Krebs-Henseleit buffer in a Langendorff apparatus at constant pressure (80 mmHg). To measure infarct size, hearts were first perfused for 20 min to reach equilibrium and then subjected to a 30-minute global ischemia (no-flow) period followed by a 60-min reperfusion period in mice or 90-min reperfusion in rats. The ventricles were cut transversely into 5 sections. The slices were stained 1% 2,3,5-triphenyl tetrazolium chloride (TTC) and scanned to measure the infarct area and the total area. Cardiac injury was assessed by measuring lactate dehydrogenase (LDH) release to coronary effluent during the 60-min reperfusion period (in mice only). The amount of LDH release was determined using an LDH activity assay kit (MBL International Corp.) as expressed as % of vehicle treated hearts.

[1] = tested on: HIF1a protein in H9c2 rat cardiomyocytes; experiment: Cell-based HIF-alpha stabilization assay (inhibition of PHD in cells); conditions: Rattus norvegicus, H9c2, 24 h, 24 hrs compound incubation, HIF1a protein by ELISA, read-out: Inhibition of PHD in cells (pEC50) (converted)
Summary of the method: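 Rat H9c2 cardiomyocytes, cultured 24 h, were treated 24 h with an 11-point serial dilution of compound. HIF1a in whole-cell lysates was quantified by ELISA as % of the maximal desferrioxamine response. EC50 came from curve fitting; EC50pos is the concentration reaching 50% of the desferrioxamine maximum.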

[2] = target: PHD2 enzyme (residues 181-417) (Homo sapiens (Human), UniProt Q9GZT9); experiment: Inhibition of PHD enzyme (LC/MS peptide hydroxylation assay); type: biochemical; conditions: PHD2 (residues 181-417) 5 nM, 60 min pre-incubation; -log(IC50), IC50 molar
Summary of the method: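 PHD2 (5 nM final) preincubated with inhibitor 60 min at RT in 50 mM HEPES, 50 mM KCl, 0.5 mM TCEP, 2 uM FeCl2, 0.1 mg/ml BSA, pH 7.3. Reaction started with biotin-peptide (1 uM), 2-oxoglutarate (2 uM), ascorbate (1 mM), quenched at 60 min; hydroxylated product by LC/MS, reported as pIC50.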

VEGF = experiment: Heart gene changes for vascular endothelial growth factor (VEGF), qRT-PCR; type: in vivo, mice; conditions: 60 mg/kg; for VEGF % Increase Compared to Control: male C57BL/6 mice, oral, heart, 2 h after dosing
Procedure: Example D Determination of Heart Gene Changes for Vascular Endothelial Growth Factor (VEGF)
PHD inhibitor or vehicle were administered orally to male C57BL/6 in groups of four. The compounds were formulated in 30% hydroxypropyl beta-cyclodextrin in 50 mM Sodium Phosphate pH7.4 at doses of 30 mg/kg and 60 mg/kg. Two hours after dosing the mice were euthanized by CO2 and the hearts were removed quickly, sectioned into 2 pieces; the lower (apical) section was snap frozen and stored at −80° C. and analyzed for VEGF gene changes applying qRT-PCR and using Life Technologies #4392938 and an RNA extraction protocol using Qiagen #74881 RNeasy 96 Universal Tissue Kit. Standards are made from RNA from combined vehicle treated animals at a concentration of 100 μg/mL, a 7 point curve is made with 1:4 dilutions and a blank. Samples are run on using RNA-to-CT 1-Step method using a StepOnePlus Real-Time PCR System from Applied Biosystems Relative quantitation is expressed by dividing the quantity of VEGF by the quantity of the reference gene. Treatment groups and vehicle control were combined and averaged.

C57 mice = experiment: In vivo cardioprotection assay, Langendorff global ischemia/reperfusion, mice; conditions: oral, 60 min reperfusion; for reduced area of the infarct compared to vehicle control: 4 h after dosing, 30 min global ischemia
Procedure: as §1, §2

PHD2 enzyme (residues 181-417), sequence (Q9GZT9 181-417): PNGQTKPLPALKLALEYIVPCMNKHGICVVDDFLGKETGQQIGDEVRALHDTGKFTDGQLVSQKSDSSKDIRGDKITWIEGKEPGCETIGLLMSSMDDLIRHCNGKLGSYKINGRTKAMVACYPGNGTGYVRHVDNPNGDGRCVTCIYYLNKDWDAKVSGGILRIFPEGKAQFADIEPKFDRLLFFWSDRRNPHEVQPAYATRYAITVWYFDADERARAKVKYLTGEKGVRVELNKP

Row | Compound | EC50 [1] [nM] | PHD Inhibition (pIC50) [2] | other results
1 | CCN1CCN(C(=O)c2ccc(-n3ncc(-c4ccc(C#N)cc4C)c3O)nc2)CC1 [Example 282, 4-(1-(5-(4-ethylpiperazine-1-carbonyl)pyridin-2-yl)-5-hydroxy-1H-pyrazol-4-yl)-3-methylbenzonitrile] | 575 | 8.00 | reduced area of the infarct (Sprague Dawley rats): 30%; greater VEGF mRNA production compared to the compound of Example R1 (VEGF; mouse heart): 2 fold; VEGF % Increase Compared to Control (VEGF): 203.1%; reduction of LDH released to the coronary effluent (C57 mice; 10 mg/kg): 51%; reduced area of the infarct compared to vehicle control (C57 mice; 10 mg/kg): 50%; reduction of LDH released to the coronary effluent (C57 mice; 30 mg/kg): 56%; reduced area of the infarct compared to vehicle control (C57 mice; 30 mg/kg): 59%
2 | Cc1cc(C#N)ccc1-c1cnn(-c2ccc(C(=O)N3CCC(CN(C)C)CC3)cn2)c1O [Example 419, 4-(1-(5-(4-((dimethylamino)methyl)piperidine-1-carbonyl)pyridin-2-yl)-5-hydroxy-1H-pyrazol-4-yl)-3-methylbenzonitrile] | 631 | 7.98 | –
3 | Cc1cc(C#N)ccc1-c1cnn(-c2ccc(C(=O)N(C3CC3)C3CCN(C)CC3)cn2)c1O [Example 420, 6-(4-(4-cyano-2-methylphenyl)-5-hydroxy-1H-pyrazol-1-yl)-N-cyclopropyl-N-(1-methylpiperidin-4-yl)nicotinamide] | 537 | 7.87 | –
4 | Cc1cc(C#N)ccc1-c1cnn(-c2ccc(C(=O)N3CCC(N4CCOCC4)CC3)cn2)c1O [Example 421, 4-(5-hydroxy-1-(5-(4-morpholinopiperidine-1-carbonyl)pyridin-2-yl)-1H-pyrazol-4-yl)-3-methylbenzonitrile] | 661 | 8.31 | –
5 | COCCN(C(=O)c1ccc(-n2ncc(-c3ccc(C#N)cc3C)c2O)nc1)C1CCN(C)CC1 [Example 422, 6-(4-(4-cyano-2-methylphenyl)-5-hydroxy-1H-pyrazol-1-yl)-N-(2-methoxyethyl)-N-(1-methylpiperidin-4-yl)nicotinamide] | 501 | 7.87 | –
6 | Cc1cc(C#N)ccc1-c1cnn(-c2ccc(C(=O)N3CCN(CCN(C)C)CC3)cn2)c1O [Example 423, 4-(1-(5-(4-(2-(dimethylamino)ethyl)piperazine-1-carbonyl)pyridin-2-yl)-5-hydroxy-1H-pyrazol-4-yl)-3-methylbenzonitrile] | 708 | 7.99 | –
7 | CCN1CCC(N(C)C(=O)c2ccc(-n3ncc(-c4ccc(C#N)cc4C)c3O)nc2)CC1 [Example 425, 6-(4-(4-cyano-2-methylphenyl)-5-hydroxy-1H-pyrazol-1-yl)-N-(1-ethylpiperidin-4-yl)-N-methylnicotinamide] | 776 | 7.74 | –
8 | COCCCNC(=O)c1ccc(-n2ncc(-c3cc(OC)c(C#N)cc3C)c2O)nc1 [Example 426, 6-(4-(4-cyano-5-methoxy-2-methylphenyl)-5-hydroxy-1H-pyrazol-1-yl)-N-(3-methoxypropyl)nicotinamide] | 2140 | 8.18 | –
9 | COCCN1CCC(N(C)C(=O)c2ccc(-n3ncc(-c4ccc(C#N)cc4C)c3O)nc2)CC1 [Example 427, 6-(4-(4-cyano-2-methylphenyl)-5-hydroxy-1H-pyrazol-1-yl)-N-(1-(2-methoxyethyl)piperidin-4-yl)-N-methylnicotinamide] | 646 | 7.83 | –
10 | Cc1cc(C#N)ccc1-c1cnn(-c2ccc(C(=O)N3CCN4CCC3CC4)cn2)c1O [Example 428, (S)-4-(1-(5-(1,4-diazabicyclo[3.2.2]nonane-4-carbonyl)pyridin-2-yl)-5-hydroxy-1H-pyrazol-4-yl)-3-methylbenzonitrile] | 501 | 7.88 | –
11 | CCN(C(=O)c1ccc(-n2ncc(-c3ccc(C#N)cc3C)c2O)nc1)C1CCN(C)CC1 [Example 429, 6-(4-(4-cyano-2-methylphenyl)-5-hydroxy-1H-pyrazol-1-yl)-N-ethyl-N-(1-methylpiperidin-4-yl)nicotinamide] | 589 | 7.95 | –
12 | Cc1cc(-n2ncc(-c3ccc(C#N)cc3)c2O)ncc1C(=O)N1CCN(C)CC1 [Example 430, 4-(5-hydroxy-1-(4-methyl-5-(4-methylpiperazine-1-carbonyl)pyridin-2-yl)-1H-pyrazol-4-yl)benzonitrile] | 8510 | 7.44 | –
13 | Cc1cc(-n2ncc(-c3ccc(C#N)cc3)c2O)ncc1C(=O)N(C)C1CCN(C)CC1 [Example 431, 6-(4-(4-cyanophenyl)-5-hydroxy-1H-pyrazol-1-yl)-N,4-dimethyl-N-(1-methylpiperidin-4-yl)nicotinamide] | 2750 | 7.31 | –
14 | Cc1cc(C#N)ccc1-c1cnn(-c2ccc(C(=O)N(C)C3CN(C)C3)cn2)c1O [Example 432, 6-(4-(4-cyano-2-methylphenyl)-5-hydroxy-1H-pyrazol-1-yl)-N-methyl-N-(1-methylazetidin-3-yl)nicotinamide] | 741 | 8.02 | –
15 | CCN1CCN(C(=O)c2ccc(-n3ncc(-c4cc(F)c(C#N)cc4C)c3O)nc2)[C@@H](C)C1 [Example 433, (S)-4-(1-(5-(4-ethyl-2-methylpiperazine-1-carbonyl)pyridin-2-yl)-5-hydroxy-1H-pyrazol-4-yl)-2-fluoro-5-methylbenzonitrile] | 363 | 8.20 | –
16 | CCN1CCN(C(=O)c2ccc(-n3ncc(-c4ccc(C#N)cc4C)c3O)nc2)[C@H](C)C1 [Example 434, (R)-4-(1-(5-(4-ethyl-2-methylpiperazine-1-carbonyl)pyridin-2-yl)-5-hydroxy-1H-pyrazol-4-yl)-3-methylbenzonitrile] | 1290 | 8.20 | –
17 | CC(C)(C)NC(=O)c1ccc(-n2ncc(-c3cccnc3)c2O)nc1 [Example R1, N-tert-butyl-6-(5-oxo-4-pyridin-3-yl-2,5-dihydro-1H-pyrazol-1-yl)pyridine-3-carboxamide, reference compound] | 955 | – | VEGF % Increase Compared to Control (VEGF): 95.2%
